Experimental findings from patent US20230064189A1, “1H-PYRAZOLO[3,4-D]PYRIMIDINE COMPOUNDS USEFUL FOR THE TREATMENT OF PLATINUM-RESISTANT CANCER” (IMPERIAL COLLEGE INNOVATIONS LIMITED, priority 2019, published 2023) are described below.

One assay concerns the target AKT2 (Homo sapiens, UniProt P31751). As to the kind of experiment: AKT2 enzymatic inhibition assay (HTRF KinEASE). Type of assay: biochemical. Particulars: read-out: AKT2 pIC50 (converted). As for the experimental part: (§1) The IC50 values of Example compounds of the invention for AKT1, AKT2 and AKT3 were measured using HTRF (Homogeneous Time Resolved Fluorescence) KinEASE assays (62ST3PEB—1000 tests or 62ST3PEC—20,000 tests) from cisbio.com, according to manufacturer's instructions.

The next assay deals with DNA-PK (Homo sapiens, UniProt P78527). As to the kind of experiment: DNA-PK enzymatic inhibition assay (HTRF KinEASE). Type of assay: biochemical. Particulars: read-out: DNA-PK pIC50 (converted). Here is the method:
The IC50 values of Example compounds of the invention for DNA-PK were measured using the HTRF KinEASE assay as described above.

In the next assay the target is AKT3 (Homo sapiens, UniProt Q9Y243). As to the kind of experiment: AKT3 enzymatic inhibition assay (HTRF KinEASE). Type of assay: biochemical. The conditions noted are these: read-out: AKT3 pIC50 (converted). Here is the method:
as §1
In general terms: TR-FRET usually uses a lanthanide donor and a delayed reading to cut background.

The next assay concerns PEO4 cells. Kind of assay: Relative re-sensitisation ratio of apoptosis induction (caspase 3/7 normalised to MTT) with cisplatin. Particulars: compound at 20 μM, triciribine at 25 μM, cisplatin 25 μM, 24 h. The class given is cell-based. As for the experimental part: Cell viability was determined for different assays (as described in FIGS. 1 and 2, Table 5) in optically clear 96 well plates using the standard 3-(4, 5-dimethylthiazol-2-yl)-2, 5-diphenyl tetrazolium bromide (MTT) assay, which is a colorimetric method for determining the number of metabolically active cells in cytotoxicity assays. MTT is bioreduced by mitochondrial dehydrogenase enzymes into a coloured solid formazan product. MTT reagent (Sigma, UK) was initially prepared by dissolving in PBS at a concentration of 3 mg/ml. Following relevant drug treatments at different time points and cell lines (described in results section and FIGS. 1 and 2), MTT reagent was added to each experimental well at a final concentration of 0.5 mg/ml. After incubation for 3 h at 37° C. 5% CO2, an equal volume of stop solution (10% SDS in 0.01% HCl) was added and formed formazan crystals were allowed to dissolve shaking overnight. The following day, the optical density was read at 570 nm and analysis performed as per each assay type.
The caspase 3/7 activity of cells following treatment with inhibitor compounds or vehicle (DMSO) was determined using the Caspase-Glo® 3/7 Assay (Catalogue number G8093, Promega, US) according to manufacturer's instructions. Briefly, 10,000 cells per well for PEO1 and PEO4 cell lines or 5000 cells per well for SKOV3 cell line were grown in 96 well plates in a final volume of 50 μl and following relevant drug treatment of cells (example compound±cisplatin, comparative example compound±cisplatin, or vehicle±cisplatin) for 24 hours, an equal volume of Caspase-Glo® Reagent containing a luminogenic substrate for Caspase 3 and Caspase 7 was added i.e. if cells cultured in 50 μl of media, 50 μl of caspase reagent was added. After 1 h incubation at room temperature in the dark, the luminescence of each sample was measured in a plate-reading luminometer (LUMIstar OPTIMA, BMG Labtech, Germany). Caspase 3/7 activity data was normalised to corresponding viability data from MTT and analysis was performed according to each experimental set-up.
. Apoptosis (caspase 3/7) and viability (MTT) assays were carried out as described for each assay protocols and the phenotypic apoptosis assays above. Relative apoptosis induction was inferred from caspase 3/7 assay values normalised to the standard MTT viability assay values of each corresponding well. […]

The target in another assay is AKT1 (Homo sapiens, UniProt P31749). As to the kind of experiment: AKT1 enzymatic inhibition assay (HTRF KinEASE). The class given is biochemical. Particulars: read-out: AKT1 pIC50 (converted). As for the experimental part: as §1
AKT1, sequence (P31749 150-408 limits assumed): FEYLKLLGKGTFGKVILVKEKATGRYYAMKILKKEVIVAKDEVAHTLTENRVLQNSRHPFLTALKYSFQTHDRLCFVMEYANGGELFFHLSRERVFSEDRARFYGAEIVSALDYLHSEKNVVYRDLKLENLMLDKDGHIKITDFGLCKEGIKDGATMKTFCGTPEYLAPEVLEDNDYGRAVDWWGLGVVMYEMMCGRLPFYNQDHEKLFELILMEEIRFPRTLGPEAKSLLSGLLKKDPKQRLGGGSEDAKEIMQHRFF

Each structure is given as a SMILES string. Where “and” joins values, the source holds several entries; their conditions need not be identical. Identical values can stand only once.

AKT3, sequence (Q9Y243 148-405 limits assumed): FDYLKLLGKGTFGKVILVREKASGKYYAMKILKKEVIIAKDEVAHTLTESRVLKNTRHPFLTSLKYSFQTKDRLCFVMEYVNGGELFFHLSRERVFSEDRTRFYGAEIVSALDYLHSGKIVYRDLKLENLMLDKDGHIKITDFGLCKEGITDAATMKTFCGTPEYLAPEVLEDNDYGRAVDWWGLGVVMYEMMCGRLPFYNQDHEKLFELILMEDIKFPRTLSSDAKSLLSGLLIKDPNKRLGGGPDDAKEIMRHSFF
AKT2, sequence (P31751 152-409 limits assumed): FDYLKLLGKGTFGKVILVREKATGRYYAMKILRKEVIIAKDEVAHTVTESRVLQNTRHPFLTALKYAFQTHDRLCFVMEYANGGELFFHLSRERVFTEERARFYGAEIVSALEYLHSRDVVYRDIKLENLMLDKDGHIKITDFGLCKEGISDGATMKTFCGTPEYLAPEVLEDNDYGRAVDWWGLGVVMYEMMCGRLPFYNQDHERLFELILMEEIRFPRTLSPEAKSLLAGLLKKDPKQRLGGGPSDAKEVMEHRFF

Turning to `CN(C)CCCC(O)(c1ccc(Cl)cc1)C1CCN(c2ncnc3[nH]nc(Br)c23)CC1` (stereo not shown) [Example 8, 1-(1-(3-bromo-1H-pyrazolo[3,4-d]pyrimidin-4-yl)piperidin-4-yl)-1-(4-chlorophenyl)-4-(dimethylamino)butan-1-ol], the IC50 was 6.03 nM on AKT2, 3.47 nM at DNA-PK, 0.955 nM at AKT3 and 2.57 nM at AKT1. The “Relative re-sensitisation ratio of apoptosis induction (caspase 3/7) relative to triciribine phosphate” value (“Relative re-sensitisation ratio” below) in the assay on PEO4 cells came to 1.73.

`CN(C)CC(c1ccc(Cl)cc1)N1CCN(c2ncnc3[nH]nc(C(F)(F)F)c23)CC1` (stereo not shown) [Example 13, 2-(4-chlorophenyl)-N,N-dimethyl-2-(4-(3-(trifluoromethyl)-1H-pyrazolo[3,4-d]pyrimidin-4-yl)piperazin-1-yl)ethanamine]: the IC50 on AKT2 was 7.24 nM; at DNA-PK, 1.86 nM; at AKT3, 2.95 nM; on AKT1, 7.08 nM. The “Relative re-sensitisation ratio” value in the assay with PEO4 cells worked out at 1.2.

Take `CN(C)CCNC(=O)C(c1ccc(Cl)cc1)N1CCN(c2ncnc3[nH]nc(Br)c23)CC1` (stereo not shown) [Example 3, 2-(4-(3-bromo-1H-pyrazolo[3,4-d]pyrimidin-4-yl)piperazin-1-yl)-2-(4-chlorophenyl)-N-(2-(dimethylamino)ethyl)acetamide]: the “Relative re-sensitisation ratio” value with PEO4 cells was 1.7.

As to `CN(C)CC(c1ccc(Cl)cc1)C1CCN(c2ncnc3[nH]nc(C(F)(F)F)c23)CC1` (stereo not shown) [Example 11, 2-(4-chlorophenyl)-N,N-dimethyl-2-(1-(3-(trifluoromethyl)-1H-pyrazolo[3,4-d]pyrimidin-4-yl)piperidin-4-yl)ethan-1-amine], the IC50 was 1.66 nM on AKT2, 1.7 nM on DNA-PK, 0.316 nM on AKT3 and 0.912 nM on AKT1. Moreover, in the assay with PEO4 cells, the “Relative re-sensitisation ratio” value came out at 1.3.

As to `CN1N=C(N)c2cn([C@@H]3O[C@H](COP(=O)(O)O)[C@@H](O)[C@H]3O)c3ncnc1c23` [Triciribine phosphate, ((2R,3S,4R,5R)-5-(3-amino-5-methyl-1,4,5,6,8-pentaazaacenaphthylen-1(5H)-yl)-3,4-dihydroxytetrahydrofuran-2-yl)methyl dihydrogen phosphate, reference compound], the “Relative re-sensitisation ratio” value with PEO4 cells is on record as 1.0.

Regarding `CN(C)CCNC(=O)C(c1ccc(Cl)cc1)N1CCN(c2ncnc3[nH]nc(Br)c23)CC1` (single isomer, unassigned; (+)) [Example 3b, (+)-2-(4-(3-bromo-1H-pyrazolo[3,4-d]pyrimidin-4-yl)piperazin-1-yl)-2-(4-chlorophenyl)-N-(2-(dimethylamino)ethyl)acetamide], the IC50 on AKT2 was 34.7 nM; at DNA-PK, 10.5 nM; on AKT3, 5.25 nM; at AKT1, 15.1 nM. Also, the “Relative re-sensitisation ratio” value in the assay on PEO4 cells stood at 1.4.

With `CN(C)CCCOC(c1ccc(Cl)cc1)C1CCN(c2ncnc3[nH]nc(Br)c23)CC1` (stereo not shown) [Example 10, 3-((1-(3-bromo-1H-pyrazolo[3,4-d]pyrimidin-4-yl)piperidin-4-yl)(4-chlorophenyl)methoxy)-N,N-dimethylpropan-1-amine], the “Relative re-sensitisation ratio” value in the assay with PEO4 cells amounted to 1.5.

For the compound `CN(C)C(=O)C(c1ccc(Cl)cc1)N1CCN(c2ncnc3[nH]nc(Br)c23)CC1` (stereo not shown) [Example 4, 2-(4-(3-bromo-1H-pyrazolo[3,4-d]pyrimidin-4-yl)piperazin-1-yl)-2-(4-chlorophenyl)-N,N-dimethylacetamide], the IC50 at AKT2 is 2240 nM; on DNA-PK, 141 nM; on AKT3 it was 603 nM; on AKT1 it was 1350 nM. The “Relative re-sensitisation ratio” value in the assay on PEO4 cells amounted to 2.6.

Regarding `CN(C)CCCCC(O)(c1ccc(Cl)cc1)C1CCN(c2ncnc3[nH]nc(Br)c23)CC1` (stereo not shown) [Example 14, 1-(1-(3-bromo-1H-pyrazolo[3,4-d]pyrimidin-4-yl)piperidin-4-yl)-1-(4-chlorophenyl)-5-(dimethylamino)pentan-1-ol], the IC50 at AKT2 was 6.46 nM; on DNA-PK, 4.68 nM; at AKT3 it was 1.29 nM; at AKT1, 2.51 nM. Moreover, in the assay on PEO4 cells, the “Relative re-sensitisation ratio” value was determined as 1.2.

As for `CN(C)CCCC(=C1CCN(c2ncnc3[nH]nc(C(F)(F)F)c23)CC1)c1ccc(Cl)cc1` [Example 15, 4-(4-chlorophenyl)-N,N-dimethyl-4-(1-(3-(trifluoromethyl)-1H-pyrazolo[3,4-d]pyrimidin-4-yl)piperidin-4-ylidene)butan-1-amine], the IC50 at AKT2 is 490 nM; at DNA-PK it was 12 nM; on AKT3 it was 158 nM; at AKT1, 933 nM. For the same compound, in the assay on PEO4 cells, the “Relative re-sensitisation ratio” value stood at 1.1.

`CN(C)CCNC(=O)C(c1ccc(Cl)cc1)N1CCN(c2ncnc3[nH]nc(Br)c23)CC1` (single isomer, unassigned; (-)) [Example 3a, (−)-2-(4-(3-bromo-1H-pyrazolo[3,4-d]pyrimidin-4-yl)piperazin-1-yl)-2-(4-chlorophenyl)-N-(2-(dimethylamino)ethyl)acetamide]: the IC50 at DNA-PK was 4.9 nM and 10.7 nM; at AKT1, 4.47 nM and 1.58 nM. In addition, in the assay with PEO4 cells, the “Relative re-sensitisation ratio” value amounted to 2.7.

For the compound `CCN(CC)CCS(=O)(=O)N(c1ccc(Cl)cc1)C1CCN(c2ncnc3[nH]nc(Br)c23)CC1` [Example 6, N-(1-(3-bromo-1H-pyrazolo[3,4-d]pyrimidin-4-yl)piperidin-4-yl)-N-(4-chlorophenyl)-2-(diethylamino)ethane-1-sulfonamide], the IC50 on AKT2 is 7.41 nM; on DNA-PK it was 6.17 nM; at AKT3, 0.851 nM; at AKT1, 1.32 nM. Moreover, the “Relative re-sensitisation ratio” value in the assay on PEO4 cells is on record as 2.3.

On to `CN(C)CC(c1ccc(Cl)cc1)C1CCN(c2ncnc3[nH]nc(Br)c23)CC1` (stereo not shown) [Example 7, 2-(1-(3-bromo-1H-pyrazolo[3,4-d]pyrimidin-4-yl)piperidin-4-yl)-2-(4-chlorophenyl)-N,N-dimethylethan-1-amine], for which the IC50 was 3.63 nM on AKT2, 2.75 nM at DNA-PK, 1.38 nM at AKT3 and 0.912 nM on AKT1. Further, the “Relative re-sensitisation ratio” value in the assay on PEO4 cells was found to be 2.3.

For the compound `Cc1n[nH]c2ncnc(N3CCC(C(OCCN(C)C)c4ccc(Cl)cc4)CC3)c12` (stereo not shown) [Example 5, 2-((4-chlorophenyl)(1-(3-methyl-1H-pyrazolo[3,4-d]pyrimidin-4-yl)piperidin-4-yl)methoxy)-N,N-dimethylethan-1-amine], the IC50 was 27.5 nM at AKT2, 7.08 nM on DNA-PK, 7.24 nM on AKT3 and 12.6 nM at AKT1. Moreover, the “Relative re-sensitisation ratio” value with PEO4 cells is on record as 2.5.

As for `CN(C)CCNC(c1ccc(Cl)cc1)C1CCN(c2ncnc3[nH]nc(Br)c23)CC1` (stereo not shown) [Example 9, N^1-((1-(3-bromo-1H-pyrazolo[3,4-d]pyrimidin-4-yl)piperidin-4-yl)(4-chlorophenyl)methyl)-N^2,N^2-dimethylethane-1,2-diamine], the IC50 was 2.75 nM on AKT2, 1.95 nM on DNA-PK, 0.676 nM at AKT3 and 1.2 nM on AKT1. In addition, the “Relative re-sensitisation ratio” value in the assay on PEO4 cells came to 1.5.

Take `COc1ccc(O)c(C(=O)c2ccc(C(=O)N[C@@H]3CCCNC[C@H]3NC(=O)c3ccncc3)cc2)c1F` [Roche comp-4, N-{(3R,4R)-4-[4-(2-fluoro-6-hydroxy-3-methoxy-benzoyl)-benzoylamino]-azepan-3-yl}-isonicotinamide, reference compound]: the IC50 on AKT2 was 170 nM; at DNA-PK, 8.51 nM; on AKT3 it was 209 nM.
